Results published in PubChem BioAssay AID651717 (Broad Institute, 2012).

Each molecule was assayed on mESC Bmi1-luciferase reporter, firefly/renilla ratio, 24 h (assay: Bmi1-luciferase reporter activators in mESC, dose response, esBAF inhibitor project, mouse embryonic stem cells, cherry-pick (AID 651717);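 further: luciferase knocked into Bmi1 locus with EF-1a renilla as cell number control; rising ratio signals esBAF inhibition which derepresses Bmi1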).
With `Clc1ccc(-n2nnc(-c3ncc[nH]3)n2)cc1Cl` the AC40 was 11.6 µM.
With `C(=N\N1CCN(c2ccccc2)CC1)/c1ccccc1` the AC40 was 4.79 µM.
`Nc1ccc(C#Cc2ccc3c(=O)c4ccccc4oc3c2)cc1` gave an AC40 of 3.64 µM.
In the case of `Cc1cc(Cl)nc(NC(=O)Nc2cccc(Cl)c2)n1`, the AC40 is reported as 0.66 µM.
For `Cc1ccc(NC(=O)Nc2ccc(F)cc2)cc1Cl`, the AC40 was 3.4 µM.
Molecule `Cc1ccc(C)c(OCc2nc3ccccc3[nH]2)c1` has an AC40 of 5.29 µM.
`COc1cc(Cl)c(C)cc1NC(=O)c1cccc(OC)c1OC` was tested, and the AC40 was 6.31 µM.
Work on `Cc1ccc(S(=O)(=O)N2CCN(C(=O)c3ccc4ccccc4n3)CC2)c(C)c1` yielded an AC40 of 6.53 µM.
For `ClCCn1cnc2c(SCc3ccccc3)ncnc21`, the AC40 was 2.74 µM.
With `O=C1CCN(Cc2ccccc2)CCN1CCSc1ccccc1` the AC40 was 3.08 µM.
`N#Cc1ccc(-c2cn3c(n2)SCC3)cc1` gave an AC40 of 4.82 µM.
`Cc1nc(Nc2ccccc2)sc1C(=O)c1ccc(F)cc1` showed an AC40 of 3.93 µM.
`N/C(=N\OC(=O)C1CCCCC1)c1ccc(Cl)cc1` gave an AC40 of 6.24 µM.
Molecule `CCOC(=O)C1=C(CSc2nc(-c3ccccc3)ccc2C#N)OC(N)=C(C#N)C1c1ccc(OC)cc1` (stereo unspecified) has an AC40 of 6.12 µM.
Molecule `Cc1ccnc(NCc2cc(C)ccc2O)c1` has an AC40 of 12.8 µM.
`C/C(=C\C(=O)c1cccnc1)Nc1ccc(C)c(C)c1` showed an AC40 of 3.36 µM.
Work on `COc1ccc(NC(=O)c2ccc3ccccc3c2OC)cc1` yielded an AC40 of 2.56 µM.
`O=C(Nc1ccccn1)c1ccc(Cl)c(S(=O)(=O)N2CCCCCC2)c1` showed an AC40 of 10.4 µM.
In the case of `O=C(Nc1ccc(F)cc1)NC1CCCCCCC1`, the AC40 is reported as 12 µM.
Molecule `Oc1ccccc1/C=N/N1CCN(c2ccccn2)CC1` has an AC40 of 2.75 µM.
`O=C(Cc1ccccc1F)Nc1nc(-c2ccc(F)c(F)c2)cs1` was tested, and the AC40 was 9.65 µM.
In the case of `Fc1ccc(Nc2nnc(-c3ccncc3)s2)cc1Cl`, the AC40 is reported as 4.42 µM.
Molecule `O=C(NCc1ccccn1)Nc1ccc(Br)cc1Cl` has an AC40 of 2.68 µM.
In the case of `COc1ccc(-c2csc(Nc3cccc(C)n3)n2)cc1OC`, the AC40 is reported as 1.44 µM.
Molecule `COc1cc(Cl)ccc1OCc1cc(C(=O)N2CCN(C)C(=O)[C@@H]2C)no1` has an AC40 of 1.64 µM.
Molecule `CN(Cc1cccnc1)C(=O)c1cc(COc2ccc3c(c2)CCCC3)on1` has an AC40 of 0.9 µM.
`CC1CCCC(C)N1C(=O)c1cc(-c2ccc(Cl)c(Cl)c2)on1` (stereo unspecified) was tested, and the AC40 was 6.88 µM.
`Cc1ccc(/C(N)=N/OC(=O)CCc2ccccc2)cc1` showed an AC40 of 11 µM.
In the case of `N#CCc1nc(CSc2nc3ccccc3s2)cs1`, the AC40 is reported as 9.73 µM.
`Cc1cc(Cl)ccc1OCc1nnc(-c2ccccc2C)o1` was tested, and the AC40 was 5.44 µM.
In the case of `c1ccc(Nc2cccc(Nc3ccccc3)n2)cc1`, the AC40 is reported as 4.8 µM.
`CC1CCCN(C(=O)CNC(=O)c2sc3ccccc3c2Cl)C1` (stereo unspecified) was tested, and the AC40 was 3.96 µM.
For `O=C(/C=N/NC(=O)c1ccc(Cl)cc1Cl)c1ccccc1`, the AC40 was 1.41 µM.
`Cc1csc(NC(=O)Cc2c(F)cccc2Cl)n1` gave an AC40 of 8.57 µM.
`CN(C)c1ccc(C=NN2CCCCCC2)cc1` was tested, and the AC40 was < 0.26 µM.
With `O=C(Cc1ccccc1)N/N=C/c1ccccc1OCc1ccc(Cl)cc1` the AC40 was 4.61 µM.
For `COc1ccc(C2CC2/C(=N/OC(=O)c2cccs2)c2ccccc2)cc1` (stereo unspecified), the AC40 was 2.9 µM.
For `Cc1cc2oc(=O)cc(CN3CCC(C)CC3)c2cc1Cl`, the AC40 was 9.54 µM.
Molecule `COc1cccc(Nc2nc(-c3sc(C)nc3C)cs2)c1` has an AC40 of 8.61 µM.
Work on `CC(C)(C)C(=O)N1CCN(c2nc3ccc(Br)cc3s2)CC1` yielded an AC40 of 1.53 µM.
In the case of `CS(=O)(=O)c1ccc2nc(NC(=O)c3ccccc3Br)sc2c1`, the AC40 is reported as 6.16 µM.
With `CCC(=O)Nc1cccc(-c2nnc(-c3ccccc3)o2)c1` the AC40 was 2.83 µM.
Molecule `CN(C)c1ccc(C=Cc2nccc3ccccc23)cc1` has an AC40 of 1.65 µM.
With `COc1cccc(C(=O)c2cc3cc(Cl)ccc3[nH]2)c1` the AC40 was 3.55 µM.
`O=C(NC1CCCC1)c1cc(-c2ccc(Cl)c(Cl)c2)on1` was tested, and the AC40 was 2.8 µM.
`Cc1cccc(Oc2ccc(Cl)cc2N)c1` showed an AC40 of 5.77 µM.
In the case of `O=C(c1ccc2ccccc2c1)N1CCc2ccccc21`, the AC40 is reported as 8.41 µM.
`Cc1c(Cl)cccc1NC(=O)c1cc(C2CC2)on1` showed an AC40 of 1.81 µM.
In the case of `O=C(Nc1ccc(F)cc1F)NC1CCCCCCC1`, the AC40 is reported as 5.14 µM.
With `COc1ccc(-c2cc(C(=O)Nc3cccnc3)no2)cc1OC` the AC40 was 4.87 µM.
`ON=C(CCc1ccccc1)c1ccccc1` showed an AC40 of 0.977 µM.
Molecule `CC(NC(=O)c1cc(COc2cccc(C(F)(F)F)c2)on1)c1nccs1` (stereo unspecified) has an AC40 of 6.45 µM.
`COC(=O)c1c(-c2ccc(Br)cc2)noc1N` gave an AC40 of 14.7 µM.
With `COc1ccc(C(=O)NCc2ccc(-c3nc4ccccc4s3)cc2)cc1` the AC40 was 6.13 µM.
`COc1cc(C)ccc1OCc1cc(C(=O)N2CCN(C3CCCCC3)CC2)no1` showed an AC40 of 5.3 µM.
Work on `COc1cccc(Nc2cc(C)c3ccccc3n2)c1` yielded an AC40 of 6.06 µM.
With `CCn1c2ccccc2c2cc(NC(=O)N3CCCCC3)ccc21` the AC40 was 1.19 µM.
`Cc1cc(F)ccc1-c1cc(C(=O)Nc2ccc(F)cc2)[nH]n1` showed an AC40 of 0.757 µM.
With `COC(=O)c1sc(Nc2ccccc2)nc1C` the AC40 was 4.18 µM.
Work on `Cc1ccc(N(Cc2ccccc2)C(=O)c2cccc(S(=O)(=O)N3CC(C)OC(C)C3)c2)cc1` (stereo unspecified) yielded an AC40 of 29.6 µM.
For `Cc1cc(=O)oc2cc(NC(=O)c3cccc(F)c3)ccc12`, the AC40 was 1.82 µM.
Molecule `O=C(Nc1cccc2ccccc12)c1cnccn1` has an AC40 of 6.43 µM.
Work on `Cc1ccc(CNC(=O)C2CCC(=O)N(CCc3ccc(Cl)cc3)C2)cc1` (stereo unspecified) yielded an AC40 of 5.36 µM.
`CCc1sc(C(=O)N2CCN(CC(=O)Nc3cccc(F)c3)CC2)cc1C` was tested, and the AC40 was 3.04 µM.
For `CC(=O)Oc1ccc2cc(-c3ccccc3)c(=O)oc2c1`, the AC40 was 4.46 µM.
Work on `COc1ccc(-c2csc(C(O)c3ccc(F)cc3)n2)cc1` (stereo unspecified) yielded an AC40 of 1.54 µM.
`O=C(CCN1C(=O)/C(=C/C=C/c2ccccc2)SC1=S)Nc1cccnc1` gave an AC40 of 2.35 µM.
For `CSc1ccccc1NC(=O)c1ccc(N2CCCC2=O)cc1`, the AC40 was 2.01 µM.
Work on `CO[C@@H]1CN(C)C(=O)c2ccc(NC(=O)Nc3ccc4c(c3)OCO4)cc2OC[C@@H](C)NC[C@@H]1C` yielded an AC40 of 2.93 µM.
In the case of `O=C1C(=Cc2ccccn2)CCc2ccccc21`, the AC40 is reported as 20.1 µM.
`COc1ccc(Cc2nc(-c3cccc(C)c3)no2)cc1` was tested, and the AC40 was 3.63 µM.
`Nc1ccccc1/C=C/c1ccccc1N` gave an AC40 of 2.4 µM.
With `O=C(NC1CCCCCCC1)c1c(O)c2ccccc2[nH]c1=O` the AC40 was 2.19 µM.
In the case of `COc1ccc2nc(C(c3ccc(C)cc3)n3c(-c4ccccc4Br)nc4ccccc43)[nH]c2c1` (stereo unspecified), the AC40 is reported as 0.494 µM.
`CC(=Nc1ccccc1O)c1sc2ccccc2c1O` showed an AC40 of 3.82 µM.
With `O=C(N/N=C/c1cccs1)c1cccc2cc[nH]c12` the AC40 was 6.06 µM.
Molecule `Cc1ccc(CN2CC(C(=O)Nc3cc(C)ccn3)CC2=O)cc1` (stereo unspecified) has an AC40 of 1.48 µM.
For `c1ccc(Nc2nc3ccccc3n3nnnc23)cc1`, the AC40 was 7.2 µM.
In the case of `COc1cc(/C=C/c2ccccc2)cc(OC)c1`, the AC40 is reported as 2.93 µM.
Work on `Cc1cc(Br)ccc1OCc1nc(-c2cccnc2)no1` yielded an AC40 of 9.06 µM.
`O=C(CCc1ccccc1)Nc1ccc(F)cc1F` was tested, and the AC40 was 7.22 µM.
`COc1ccc(C)cc1NCc1cc(=O)oc2cc(-c3ccccc3)c(O)cc12` was tested, and the AC40 was 32.4 µM.
For `COc1ccccc1C(=O)Oc1ccccc1C(=O)Nc1ccccc1`, the AC40 was 5.18 µM.
For `COc1cc(C2Nc3cc(Cl)c(S(N)(=O)=O)cc3S(=O)(=O)N2)ccc1OCc1ccccc1` (stereo unspecified), the AC40 was 3.48 µM.
`COc1ccc(N2CCN(C(=O)C3Cc4ccccc4CN3C(=O)c3ccccc3)CC2)cc1` (stereo unspecified) showed an AC40 of 16.5 µM.
Work on `Clc1ccc(-c2cnnc(-c3ccccn3)n2)cc1` yielded an AC40 of 1.79 µM.
Molecule `O=C(c1cc(-c2ccc(Cl)cc2)on1)N1CCN(c2ccccc2)CC1` has an AC40 of 6.4 µM.
`O=C(COc1ccc(/C=N/NC(=O)c2cc3ccccc3o2)cc1Br)Nc1ccccc1` was tested, and the AC40 was 4.24 µM.
`COC(=O)c1c(-c2ccc(S(C)(=O)=O)cc2)sc2ccc(OC)cc12` showed an AC40 of 0.954 µM.
Work on `COc1ccc(-c2noc(CCCC(=O)N3CCN(c4cc(C)ccc4C)CC3)n2)cc1` yielded an AC40 of 3.53 µM.
In the case of `Clc1ccc(-c2csc(N3CCSCC3)n2)cc1`, the AC40 is reported as 5.65 µM.
